These compounds were tested on human embryonic stem cell derived neural stem cells (NSCs) (assay: Neural stem cell proliferation assay (neurogenesis assay)). Conditions: Homo sapiens, Neural stem cell, 96 h; Table 1, novel compounds; concentration at which 150% activity of control (100%) is reached; ATP levels (CellTiterGlo) after 4 days incubation.
Format: cell-based
Protocol: Neural Stem Cell Proliferation Assay
Neurogenic properties of small molecules are determined based on the proliferation of human embryonic stem cell derived neural stem cells (NSCs) which were derived via a dual smad inhibition as previously described (Chambers, S. M., et al., Highly efficient neural conversion of human ES and iPS cells by dual inhibition of SMAD signaling, Nature biotechnology, 2009. 27 (3): p. 275-80.)
Compounds respond is measured by the increase in cells based on ATP levels (Promega:CellTiterGlo®) after an incubation period of 4 days.
NSCs are thawed and expanded over 3 passages. On the 14th day, NSCs are seeded in Polyornithin/Laminin coated 384 well plates at a cell density of 21,000 cells/cm^2 in a media volume of 38 μl.
4 hours after cell seeding, compound solutions are added at a volume of 2 μl. Stock solutions of the compounds (water, 5% DMSO) are diluted to obtain a dose response (11 points, dilution factor is 2), ranging from 8 μM to 8 nM. Controls are run to consistently determine the neurogenic properties of the cells:
Negative (neutral) control is cell culture Media (final DMSO concentration: 0.25%).
Positive controls are: • 1. cell culture Media+100 ng/ml FGF2 (final DMSO concentration: 0.1%) • 2. cell culture Media+20 ng/ml EGF (final DMSO concentration: 0.1%) • 3. cell culture Media+100 ng/ml Wnt3a (final DMSO concentration: 0.1%)
After 4 days incubation at 37° C., 5% CO2, the amount of ATP per well is quantified. The ATP concentration is proportional to the cell number. ATP is quantified by using the Promega CellTiterGlo® kit. The CellTiterGlo® reagents contain a cell lysis buffer, a thermo stable luciferase (UltraGlo™ recombinant luciferase), magnesium and luciferin. Luciferin reacts with ATP producing oxyluciferin, AMP and light. The luminescence signal is proportional to the ATP content.
The value of negative (neutral) control is determined for each assay plate by taking the average of 16 negative control wells. The neurogenic compound response is calculated for each compound as (compound/Negative Control)*100.
The values of EC150 from the dose response curve are determined for each test compound. The EC150 is the compound concentration at which 150% activity of control (100%) is reached.

Structure (SMILES)	EC (150% of control) [µM]
COCCN(Cc1ccccc1)C(=O)c1ccc2cncc(-c3ccc(OC)cc3)c2n1 [Example 34, N-Benzyl-N-(2-methoxyethyl)-8-(4-methoxyphenyl)-1,6-naphthyridine-2-carboxamide]	0.21
COc1ccc(-c2cncc3ccc(C(=O)NCCC(F)(F)F)nc23)cc1 [Example 35, 8-(4-Methoxyphenyl)-N-(3,3,3-trifluoropropyl)-1,6-naphthyridine-2-carboxamide]	1.74
O=C(NCCCn1ccnc1)c1ccc2cncc(-c3cccc(Cl)c3)c2n1 [Example 36, N-(3-(1H-Imidazol-1-yl)propyl)-8-(3-chlorophenyl)-1,6-naphthyridine-2-carboxamide]	1.04
O=C(NCCCn1ccnc1)c1ccc2cncc(-c3ccc(Cl)cc3)c2n1 [Example 37, N-(3-(1H-Imidazol-1-yl)propyl)-8-(4-chlorophenyl)-1,6-naphthyridine-2-carboxamide]	0.12
COc1cccc(-c2cncc3ccc(C(=O)NCCCn4ccnc4)nc23)c1 [Example 38, N-(3-(1H-Imidazol-1-yl)propyl)-8-(3-methoxyphenyl)-1,6-naphthyridine-2-carboxamide]	1.95
COc1ccccc1-c1cncc2ccc(C(=O)NCCCn3ccnc3)nc12 [Example 39, N-(3-(1H-Imidazol-1-yl)propyl)-8-(2-methoxyphenyl)-1,6-naphthyridine-2-carboxamide]	0.74
O=C(NCCCn1ccnc1)c1ccc2cncc(-c3ccccc3Cl)c2n1 [Example 40, N-(3-(1H-Imidazol-1-yl)propyl)-8-(2-chlorophenyl)-1,6-naphthyridine-2-carboxamide]	0.69
O=C(NCCCn1ccnc1)c1ccc2cncc(-c3ccncc3)c2n1 [Example 41, N-(3-(1H-Imidazol-1-yl)propyl)-8-(pyridin-4-yl)-1,6-naphthyridine-2-carboxamide]	1.7
COc1ccc(-c2cncc3ccc(C(=O)NCCCn4nc(C)cc4C)nc23)cc1 [Example 42, N-(3-(3,5-Dimethyl-1H-pyrazol-1-yl)propyl)-8-(4-methoxyphenyl)-1,6-naphthyridine-2-carboxamide]	0.25
O=C(NCCCn1ccnc1)c1ccc2cncc(C3=CCOCC3)c2n1 [Example 43, N-(3-(1H-Imidazol-1-yl)propyl)-8-(3,6-dihydro-2H-pyran-4-yl)-1,6-naphthyridine-2-carboxamide]	2.68
NC(=O)c1ccc2cncc(-c3ccc(Cl)cc3)c2n1 [Example 44, 8-(4-Chlorophenyl)-1,6-naphthyridine-2-carboxamide]	0.03
O=C(NCc1cccnc1)c1ccc2cncc(-c3ccc(Cl)cc3)c2n1 [Example 45, 8-(4-Chlorophenyl)-N-(pyridin-3-ylmethyl)-1,6-naphthyridine-2-carboxamide]	0.02
O=C(NCc1ccccn1)c1ccc2cncc(-c3ccc(Cl)cc3)c2n1 [Example 46, 8-(4-Chlorophenyl)-N-(pyridin-2-ylmethyl)-1,6-naphthyridine-2-carboxamide]	0.51
COc1ccccc1CNC(=O)c1ccc2cncc(-c3ccc(Cl)cc3)c2n1 [Example 47, 8-(4-Chlorophenyl)-N-(2-methoxybenzyl)-1,6-naphthyridine-2-carboxamide]	0.13
Cc1cnc(CNC(=O)c2ccc3cncc(-c4ccc(Cl)cc4)c3n2)cn1 [Example 48, 8-(4-Chlorophenyl)-N-((5-methylpyrazin-2-yl)methyl)-1,6-naphthyridine-2-carboxamide]	0.88
CS(=O)(=O)NNC(=O)c1ccc2cncc(-c3ccc(Cl)cc3)c2n1 [Example 49, N′-(8-(4-Chlorophenyl)-1,6-naphthyridine-2-carbonyl)methanesulfonohydrazide]	0.07

Structure (SMILES)	EC (150% of control) [µM]
CS(=O)(=O)c1ccc(CNC(=O)c2ccc3cncc(-c4ccc(Cl)cc4)c3n2)cc1 [Example 50, 8-(4-Chlorophenyl)-N-(4-(methylsulfonyl)benzyl)-1,6-naphthyridine-2-carboxamide]	0.32
CS(=O)(=O)c1cccc(CNC(=O)c2ccc3cncc(-c4ccc(Cl)cc4)c3n2)c1 [Example 51, 8-(4-Chlorophenyl)-N-(3-(methylsulfonyl)benzyl)-1,6-naphthyridine-2-carboxamide]	0.12
O=C(Nc1ccccc1)c1ccc2cncc(-c3ccc(Cl)cc3)c2n1 [Example 53, 8-(4-Chlorophenyl)-N-phenyl-1,6-naphthyridine-2-carboxamide]	0.23
O=C(Nc1cccnc1)c1ccc2cncc(-c3ccc(Cl)cc3)c2n1 [Example 54, 8-(4-Chlorophenyl)-N-(pyridin-3-yl)-1,6-naphthyridine-2-carboxamide]	0.8
Cn1cc(NC(=O)c2ccc3cncc(-c4ccc(Cl)cc4)c3n2)cn1 [Example 55, 8-(4-Chlorophenyl)-N-(1-methyl-1H-pyrazol-4-yl)-1,6-naphthyridine-2-carboxamide]	0.25
O=C(c1ccc2cncc(-c3ccc(Cl)cc3)c2n1)N1CCCCC1 [Example 56, (8-(4-Chlorophenyl)-1,6-naphthyridin-2-yl)(piperidin-1-yl)methanone]	1.51
O=C(c1ccc2cncc(-c3ccc(Cl)cc3)c2n1)N1CCOCC1 [Example 57, (8-(4-Chlorophenyl)-1,6-naphthyridin-2-yl)(morpholino)methanone]	0.17
CC(C)(C)OC(=O)N1CCN(C(=O)c2ccc3cncc(-c4ccc(Cl)cc4)c3n2)CC1 [Example 58, tert-Butyl 4-(8-(4-chlorophenyl)-1,6-naphthyridine-2-carbonyl)piperazine-1-carboxylate]	1.1
O=C(NN1CCCCC1)c1ccc2cncc(-c3ccc(Cl)cc3)c2n1 [Example 59, 8-(4-Chlorophenyl)-N-(piperidin-1-yl)-1,6-naphthyridine-2-carboxamide]	1.48
O=C(NC1CCOC1)c1ccc2cncc(-c3ccc(Cl)cc3)c2n1 (stereo not shown) [Example 60, 8-(4-Chlorophenyl)-N-(tetrahydrofuran-3-yl)-1,6-naphthyridine-2-carboxamide]	0.15
O=C(c1ccc2cncc(-c3ccc(Cl)cc3)c2n1)N1CCNCC1 [Example 61, (8-(4-Chlorophenyl)-1,6-naphthyridin-2-yl)(piperazin-1-yl)methanone]	3.15
CC1(CNC(=O)c2ccc3cncc(-c4ccc(Cl)cc4)c3n2)CCC(=O)N1 (stereo not shown) [Example 62, 8-(4-Chlorophenyl)-N-((2-methyl-5-oxopyrrolidin-2-yl)methyl)-1,6-naphthyridine-2-carboxamide]	0.01
O=C(NCC(F)(F)F)c1ccc2cncc(-c3ccc(Cl)cc3)c2n1 [Example 63, 8-(4-Chlorophenyl)-N-(2,2,2-trifluoroethyl)-1,6-naphthyridine-2-carboxamide]	0.23
O=C(NCCC(F)(F)F)c1ccc2cncc(-c3ccc(Cl)cc3)c2n1 [Example 64, 8-(4-Chlorophenyl)-N-(3,3,3-trifluoropropyl)-1,6-naphthyridine-2-carboxamide]	0.15
O=C(NC1CC1)c1ccc2cncc(-c3ccc(Cl)cc3)c2n1 [Example 65, 8-(4-Chlorophenyl)-N-cyclopropyl-1,6-naphthyridine-2-carboxamide]	0.08

Source: patent US9657014B2, “Substituted 1,6-naphthyridines” (Hoffmann-La Roche Inc., priority 2012, dated 2017)
